According to article PMC11031590, “Narazaciclib, a novel multi-kinase inhibitor with potent activity against CSF1R, FLT3 and CDK6, shows strong anti-AML activity in defined preclinical models” (Scientific Reports, 2024):

Key:
Test in all cases: AML cell line in vitro proliferation assay
Type in all cases: cell-based
EOL1 = test system: EOL1
Experimental: (§1) Narazaciclib was serially diluted with culture medium to 9 final assay concentrations from 0.01 to 100 μM. The assay was performed with both a negative control (vehicle) and a positive control (Cisplatin) in triplicate. The AML cell lines at log-growth phase were cultured in 96-well plates (black transparent flat bottom 96-well plate, Corning, Cat# 3603, FBS, ExCell Bio., Cat# FND500) in the presence of narazaciclib or Cisplatin at various concentrations for 72 h or 120 h (only for AML-193 cell line), followed by CTG readout according to the manufacturer’s instruction (CellTiter-Glo Luminescent Cell Viability Assay, Promega, Cat# G7573). Viability%=Lumdrug-Lummedium control/Lumcell control-Lummedium control×100%. Lumcell control-Lummedium controlas100%,LumMediumcontrolas0%. Proliferationfold increase=D5-LumNone treated-LumMedium control/D2LumNone treated-LumMedium control
(§2) Dose–response curves were fitted by a 4-parameter log-logistic model: Inhibition%=Bottom+Top-Bottom/1+10^logEC50-x∗HillSlope where Top and Bottom are the two asymptotes of the sigmoidal curve, EC50 is the relative IC50, concentration x is in log-10 scale and HillSlope is the slope at the EC50 point on the fitted curve. The fitted area under the curve (AUC) was calculated by: Inhibition%=Bottom+Top-Bottom/1+10^logEC50-x∗HillSlope where a represents the log10-transformed minimal concentration and b represents the log10-transformed maximal concentration. An extremely strong positive correlation between the absolute IC50 and AUC is shown in Supplemental Fig. S5.

THP-1 = test system: THP-1
Experimental: as §1, §2

MOLM-13 = test system: MOLM-13
Experimental: as §1, §2

OCI-M1 = test system: OCI-M1
Experimental: as §1, §2

SKNO-1 = test system: SKNO-1
Experimental: as §1, §2

NB4 = test system: NB4
Experimental: as §1, §2

PL21 = test system: PL21
Experimental: as §1, §2

HEL-9217 = test system: HEL-9217
Experimental: as §1, §2

UT7 = test system: UT7
Experimental: as §1, §2

ML2 = test system: ML2
Experimental: as §1, §2

HL-60 = test system: HL-60
Experimental: as §1, §2

KASUMI-1 = test system: KASUMI-1
Experimental: as §1, §2

MOLM-16 = test system: MOLM-16
Experimental: as §1, §2

M07E = test system: M07E
Experimental: as §1, §2

KG-1A = test system: KG-1A
Experimental: as §1, §2

AML-193 = test system: AML-193
Experimental: as §1, §2

NOMO-1 = test system: NOMO-1
Experimental: as §1, §2

SKM-1 = test system: SKM-1
Experimental: as §1, §2

HNT34 = test system: HNT34
Experimental: as §1, §2

CMK-115 = test system: CMK-115
Experimental: as §1, §2

OCI-AML-3 = test system: OCI-AML-3
Experimental: as §1, §2

OCI-AML-2 = test system: OCI-AML-2
Experimental: as §1, §2

[1] = area under the dose–response curve

`CN1CCN(c2ccc(Nc3ncc4cc(C#N)c(=O)n(C5CCCC5)c4n3)cc2)CC1` [Narazaciclib, narazaciclib] was tested, and the “Classification by AUC” value (EOL1; EOL1) was “Sensitive (AUC ≤ 2.4, sensitive)”, the AUC (EOL1; EOL1, area under the dose–response curve) was 0.5917 and the IC50 (EOL1; Homo sapiens, EOL1, 72 h, CTG) was 0.035 µM. The IC50 (THP-1; Homo sapiens, THP-1, 72 h, CTG) was over 100 µM, the “Classification by AUC” value (THP-1; THP-1) was “Insensitive (AUC ≥ 2.8, insensitive)” and the AUC (THP-1; THP-1, area under the dose–response curve) was 3.445. The IC50 (MOLM-13; Homo sapiens, MOLM-13, 72 h, CTG) was 0.103 µM, the “Classification by AUC” value (MOLM-13; MOLM-13) was “Sensitive (AUC ≤ 2.4, sensitive)” and the AUC (MOLM-13; MOLM-13, area under the dose–response curve) was 1.068. The “Classification by AUC” value (OCI-M1; OCI-M1) was “Insensitive (AUC ≥ 2.8, insensitive)”, the IC50 (OCI-M1; OCI-M1, 72 h, CTG) was 19.5 µM and the AUC (OCI-M1; OCI-M1, area under the dose–response curve) was 3.404. The “Classification by AUC” value (SKNO-1; SKNO-1) was “Sensitive (AUC ≤ 2.4, sensitive)”, the IC50 (SKNO-1; SKNO-1, 72 h, CTG) was 0.234 µM and the AUC (SKNO-1; SKNO-1, area under the dose–response curve) was 1.97. For the same molecule, the IC50 (NB4; Homo sapiens, NB-4, NB4, 72 h, CTG) was 3.28 µM, the “Classification by AUC” value (NB4; NB4) was “Insensitive (AUC ≥ 2.8, insensitive)” and the AUC (NB4; NB4, area under the dose–response curve) was 2.865. The “Classification by AUC” value (PL21; PL21) was “Sensitive (AUC ≤ 2.4, sensitive)”, the AUC (PL21; PL21, area under the dose–response curve) was 2.37 and the IC50 (PL21; PL-21, PL21, 72 h, CTG) was 3.4 µM. For the same molecule, the “Classification by AUC” value (HEL-9217; HEL-9217) was “Insensitive (AUC ≥ 2.8, insensitive)”, the AUC (HEL-9217; HEL-9217, area under the dose–response curve) was 3.209 and the IC50 (HEL-9217; Homo sapiens, HEL 92.1.7, HEL-9217, 72 h, CTG) was 15.7 µM. The IC50 (UT7; Homo sapiens, UT7, 72 h, CTG) was 62.4 µM, the “Classification by AUC” value (UT7; UT7) was “Insensitive (AUC ≥ 2.8, insensitive)” and the AUC (UT7; UT7, area under the dose–response curve) was 3.469. The IC50 (ML2; Homo sapiens, ML-2, ML2, 72 h, CTG) was 3.6 µM, the “Classification by AUC” value (ML2; ML2) was “Intermediate (2.4 < AUC < 2.8, intermediate)” and the AUC (ML2; ML2, area under the dose–response curve) was 2.633. The “Classification by AUC” value (HL-60; HL-60) was “Insensitive (AUC ≥ 2.8, insensitive)”, the AUC (HL-60; HL-60, area under the dose–response curve) was 2.836 and the IC50 (HL-60; Homo sapiens, HL-60, 72 h, CTG) was 6.14 µM. The IC50 (KASUMI-1; Homo sapiens, KASUMI-1, 72 h, CTG) was 0.169 µM, the “Classification by AUC” value (KASUMI-1; KASUMI-1) was “Sensitive (AUC ≤ 2.4, sensitive)” and the AUC (KASUMI-1; KASUMI-1, area under the dose–response curve) was 1.307. The IC50 (MOLM-16; MOLM16, MOLM-16, 72 h, CTG) was 4.77 µM, the “Classification by AUC” value (MOLM-16; MOLM-16) was “Insensitive (AUC ≥ 2.8, insensitive)” and the AUC (MOLM-16; MOLM-16, area under the dose–response curve) was 2.992. The “Classification by AUC” value (M07E) was “Intermediate (2.4 < AUC < 2.8, intermediate)”, the IC50 (M07E; M-07e, 72 h, CTG) was 4.86 µM and the AUC (M07E; [1]) was 2.557. For the same molecule, the “Classification by AUC” value (KG-1A) was “Sensitive (AUC ≤ 2.4, sensitive)”, the IC50 (KG-1A; Homo sapiens, 72 h, CTG) was 1.06 µM and the AUC (KG-1A; [1]) was 2.289. The “Classification by AUC” value (AML-193; AML-193) was “Intermediate (2.4 < AUC < 2.8, intermediate)”, the IC50 (AML-193; AML-193, 120 h, CTG) was 6.29 µM and the AUC (AML-193; AML-193, area under the dose–response curve) was 2.514. The IC50 (NOMO-1; Homo sapiens, NOMO-1, 72 h, CTG) was over 100 µM, the “Classification by AUC” value (NOMO-1; NOMO-1) was “Insensitive (AUC ≥ 2.8, insensitive)” and the AUC (NOMO-1; NOMO-1, area under the dose–response curve) was 3.207. The IC50 (SKM-1; Homo sapiens, SKM-1, 72 h, CTG) was 1.94 µM, the “Classification by AUC” value (SKM-1; SKM-1) was “Sensitive (AUC ≤ 2.4, sensitive)” and the AUC (SKM-1; SKM-1, area under the dose–response curve) was 2.323. The “Classification by AUC” value (HNT34; HNT34) was “Sensitive (AUC ≤ 2.4, sensitive)”, the AUC (HNT34; HNT34, area under the dose–response curve) was 2.068 and the IC50 (HNT34; HNT-34, HNT34, 72 h, CTG) was 1.48 µM. The IC50 (CMK-115; CMK-11-5, CMK-115, 72 h, CTG) was 5.07 µM, the “Classification by AUC” value (CMK-115; CMK-115) was “Insensitive (AUC ≥ 2.8, insensitive)” and the AUC (CMK-115; CMK-115, area under the dose–response curve) was 2.801. The IC50 (OCI-AML-3; Homo sapiens, OCI-AML-3, 72 h, CTG) was 2.94 µM, the “Classification by AUC” value (OCI-AML-3; OCI-AML-3) was “Insensitive (AUC ≥ 2.8, insensitive)” and the AUC (OCI-AML-3; OCI-AML-3, area under the dose–response curve) was 2.863. The IC50 (OCI-AML-2; Homo sapiens, OCI-AML2, OCI-AML-2, 72 h, CTG) was 1.16 µM, the “Classification by AUC” value (OCI-AML-2; OCI-AML-2) was “Sensitive (AUC ≤ 2.4, sensitive)” and the AUC (OCI-AML-2; OCI-AML-2, area under the dose–response curve) was 2.116.
